Where “and” joins values, the source holds several entries; their conditions need not be identical. Identical values can stand only once.
Experiments:
[1] = instrument: TW, calibrated with phosphatidylcholines (ESI+) and phosphatidylethanolamines (ESI-)
[2] = [M-H]-; instrument: DT; stepped-field
[3] = instrument: DT, single field, calibrated with Agilent tune mix (Agilent)
[4] = [M+H]+; instrument: TW

CCCCC/C=C\C/C=C\C/C=C\CCCCCCC(=O)O[C@H](COC(=O)CCCCCCC/C=C\CCCCCC)COP(=O)(O)O[C@H]1C(O)C(O)C(O)[C@@H](O)C1O (some centres undefined) [PI(36:4)]
collision cross section (N2) ([1]; [M+Na]+): 290.5 Å²
collision cross section (N2) ([1]; [M-H]-): 286.1 Å²
collision cross section (N2) [2]: 297.2 Å²
collision cross section (N2) ([3]; [M+H]+): 296.5 Å²
collision cross section (N2) ([3]; [M+NH4]+): 297.3 Å²
collision cross section (N2) ([3]; [M+Na]+): 294.5 Å²

CCCCC/C=C\C/C=C\CCCCCCCCCCCC(=O)O[C@H](COC(=O)CCCCCCC/C=C\CCCCCC)COP(=O)(O)O[C@H]1C(O)C(O)C(O)[C@@H](O)C1O (some centres undefined) [PI(38:3)]
collision cross section (N2) ([1]; [M+Na]+): 298.5 Å²
collision cross section (N2) ([1]; [M-H]-): 293 Å²
collision cross section (N2) [2]: 301.7 Å² and 303.9 Å²
collision cross section (N2) ([3]; [M+H]+): 304.2 Å²
collision cross section (N2) ([3]; [M+NH4]+): 306 Å²
collision cross section (N2) ([3]; [M+Na]+): 303.1 Å²
collision cross section (N2) ([3]; [M-H]-): 293.7 Å²

CC/C=C\C/C=C\C/C=C\C/C=C\CCCCC(=O)OC[C@H](COP(=O)(O)O[C@H]1C(O)C(O)C(O)[C@@H](O)C1O)OC(=O)CCCCCCCCCCCCCCCCCCC (some centres undefined) [PI(38:4)]
collision cross section (N2) ([1]; [M+Na]+): 297.4 Å²
collision cross section (N2) ([1]; [M-H]-): 292.1 Å²
collision cross section (N2) [2]: 303.6 Å² and 300.7 Å²
collision cross section (N2) ([3]; [M+H]+): 302.3 Å²
collision cross section (N2) ([3]; [M+NH4]+): 304 Å²
collision cross section (N2) ([3]; [M-H]-): 292.9 Å²

CCCCC/C=C\C/C=C\CCCCCCCCCCCC(=O)O[C@H](COC(=O)CCCCCCCCCCC)COP(=O)(O)OC[C@H](N)C(=O)O [PS(16:1/18:1)]
collision cross section (N2) [2]: 276.9 Å²

CCCCCCCCCC/C=C\CCCCCCCCCC(=O)O[C@H](COC(=O)CCCCCCCCCCCCCCC)COP(=O)(O)OC[C@H](N)C(=O)O [PS(38:1)]
collision cross section (N2) [2]: 296.1 Å²
collision cross section (N2) ([3]; [M+H]+): 292.9 Å²

CCCCC/C=C\C/C=C\CCCCCCCCCCCC(=O)O[C@H](COC(=O)CCCCCCC/C=C\CCCCCC)COP(=O)(O)OC[C@H](N)C(=O)O [PS(38:3)]
collision cross section (N2) ([1]; [M-H]-): 281.7 Å²
collision cross section (N2) [2]: 292.4 Å²

CCCCCCCCCC/C=C\CCCCCCCCCC(=O)O[C@H](COC(=O)CCCCCCCCCCCCCCCCC)COP(=O)(O)OC[C@H](N)C(=O)O [PS(40:1)]
collision cross section (N2) [2]: 302.2 Å²

C=C1C[C@@]23CC[C@H]4[C@@](C)(CCC[C@@]4(C)C(=O)O)[C@@H]2CC[C@]1(O[C@@H]1O[C@H](CO)[C@@H](O)[C@H](O[C@@H]2O[C@H](CO)[C@@H](O)[C@H](O)[C@H]2O)[C@H]1O[C@@H]1O[C@H](CO)[C@@H](O)[C@H](O)[C@H]1O)C3 [Rebaudioside B]
collision cross section (N2) [4]: 261.19 Å²

C=C1C[C@@]23CC[C@H]4[C@@](C)(CCC[C@@]4(C)C(=O)O[C@@H]4O[C@H](CO)[C@@H](O)[C@H](O)[C@H]4O)[C@@H]2CC[C@]1(O[C@@H]1O[C@H](CO)[C@@H](O)[C@H](O[C@@H]2O[C@H](CO)[C@@H](O)[C@H](O)[C@H]2O)[C@H]1O[C@@H]1O[C@@H](C)[C@H](O)[C@@H](O)[C@H]1O)C3 [Rebaudioside C]
collision cross section (N2) [4]: 299.49 Å²

C=C1C[C@@]23CC[C@H]4[C@@](C)(CCC[C@@]4(C)C(=O)O[C@@H]4O[C@H](CO)[C@@H](O)[C@H](O)[C@H]4O[C@@H]4O[C@H](CO)[C@@H](O)[C@H](O)[C@H]4O)[C@@H]2CC[C@]1(O[C@@H]1O[C@H](CO)[C@@H](O)[C@H](O)[C@H]1O[C@@H]1O[C@H](CO)[C@@H](O)[C@H](O)[C@H]1O)C3 [Rebaudioside E]
collision cross section (N2) [4]: 289.2 Å²

C=C1C[C@@]23CC[C@H]4[C@@](C)(CCC[C@@]4(C)C(=O)O[C@@H]4O[C@H](CO)[C@@H](O)[C@H](O)[C@H]4O)[C@@H]2CC[C@]1(O[C@@H]1O[C@H](CO)[C@@H](O)[C@H](O[C@@H]2O[C@H](CO)[C@@H](O)[C@H](O)[C@H]2O)[C@H]1O[C@@H]1OC[C@@H](O)[C@H](O)[C@H]1O)C3 [Rebaudioside F]
collision cross section (N2) [4]: 293.18 Å²

C=C1C[C@@]23CC[C@H]4[C@@](C)(CCC[C@@]4(C)C(=O)O[C@@H]4O[C@H](CO)[C@@H](O)[C@H](O)[C@H]4O)[C@@H]2CC[C@]1(O[C@@H]1O[C@H](CO)[C@@H](O)[C@H](O)[C@H]1O)C3 [Rubusoside]
collision cross section (N2) [4]: 241.31 Å²

C=C1C[C@@]23CC[C@H]4[C@@](C)(CCC[C@@]4(C)C(=O)O[C@@H]4O[C@H](CO)[C@@H](O)[C@H](O)[C@H]4O)[C@@H]2CC[C@]1(O[C@@H]1O[C@H](CO)[C@@H](O)[C@H](O)[C@H]1O[C@@H]1O[C@H](CO)[C@@H](O)[C@H](O)[C@H]1O)C3 [Stevioside]
collision cross section (N2) [4]: 269.64 Å²

COc1cc(NS(=O)(=O)c2ccc(N)cc2)nc(OC)n1 [Sulfadimethoxine]
collision cross section (N2) [4]: 166 Å²

Nc1ccc(S(=O)(=O)Nc2nccs2)cc1 [Sulfathiazole]
collision cross section (N2) [4]: 148.2 Å²

CC(C)(C)C(O)(CCc1ccc(Cl)cc1)Cn1cncn1 (centres undefined) [Tebuconazole]
collision cross section (N2) [4]: 167.37 Å²

CCOP(=S)(OCC)SCS(=O)(=O)C(C)(C)C [Terbufos-sulfone]
collision cross section (N2) [4]: 172.88 Å²

CCNc1nc(Cl)nc(NC(C)(C)C)n1 [Terbuthylazine]
collision cross section (N2) [4]: 153.48 Å²

N#C/N=C1\SCCN1Cc1ccc(Cl)nc1 [Thiacloprid]
collision cross section (N2) [4]: 154.84 Å²

COC(=O)NC(=S)Nc1ccccc1NC(=S)NC(=O)OC [Thiophanate-methyl]
collision cross section (N2) [4]: 174.24 Å²

CCCNC[C@]1(O)[C@H](C)O[C@@H](O[C@H]2[C@H](C)[C@@H](O[C@@H]3O[C@H](C)C[C@H](N(C)C)[C@H]3O)[C@](C)(O)C[C@@H](C)CN[C@H](C)[C@@H](O)[C@](C)(O)[C@@H](CC)OC(=O)[C@@H]2C)C[C@@]1(C)OC [Tulathromycin]
collision cross section (N2) [4]: 286.4 Å²

Source: the C3SDB collision cross section collection
